Laboratory results taken from US7731941B2, “Staining composition for staining an ophthalmic membrane” (priority 2004, dated 2010).
Values joined by “and” are separate entries in the source; they are usually repeats but may differ in a detail not shown here. Equal values may be shown once. “Also recorded” adds a separate entry of the source. Read-outs that look alike come from different tables or passages of the source.

Tests used:
anterior capsule [1] = settings: stated for comparison, no test described; cited from earlier work
corneal endothelium = settings: single anterior chamber injection; for apoptotic cell death (TUNEL) in corneal stromal cells, endothelium, ciliary body and lens cells: BBG 0.01-10 mg/ml, ICG 5 mg/ml
ILM [2] = system: ILM
anterior capsule [3] = test: Capsular staining ability of BBG in pig eyes
Method: The capsular staining ability of BBG was assessed in pig eyes using graded concentrations of the dye.
The pig eyes were obtained from a local slaughterhouse and transported to the laboratory on ice. The extraocular muscles and other connective tissues were carefully cut off and the eyes were placed on the operation chamber. The BBG solution was prepared using the following method. Twenty milligrams of BBG (Coomassie. brilliant blue G 250; Signa-Aldrich, St. Louis, USA) were dissolved in 10 ml of intraocular irrigating solution (OPEGUARD.-MA, Senjyu Pharmaceutical Co., Ltd., Osaka, Japan) and sterilized with a syringe filter (Minisart. Sartorius AG, Goettingen, Germany). Under the operation microscope, the capsular staining by BBG was examined as follows. […] The anterior chamber was immediately irrigated by enhanced balanced salt solution (BSS Plus®, Santen Pharmaceuticals, Japan) and the excessive dye was easily washed out.
To deepen the anterior chamber, 1% sodium hyaluronate (Healon®, Pharmacia, Uppsala, Sweden) was injected. A CCC was initiated by preparing a small triangular anterior capsular flap with a bent 26-gauge disposable needle mounted on a viscoelastic syringe. The CCC was completed using a cystotome or capsulorhexis forceps.

anterior capsule [4] = test: BBG-assisted continuous curvilinear capsulorhexis in a human eye; type: in vivo
Method: A person with a white mature cataract underwent BBG-assisted CCC and phacoemulsification with intraocular lens (IOL) implantation in August 2004. The patient had no other ocular diseases, such as glaucoma, uveitis or corneal disorders. Coomassie® BBG 250 (Sigma-Aldrich, St. Louis, USA) was dissolved in intraocular irrigating solution (OPEGUARD®-MA; Senjyu Pharmaceutical Co., Ltd., Osaka, Japan) at a dose of 0.25 mg/ml and sterilized with a syringe filter. The BBG solution was gently injected into the anterior chamber and then washed out immediately with balanced salt solution (BSS).

retina [5] = system: retina
retina [6] = settings: rat, in vivo
Method: Brown Norway rats (n=78 males, 8 weeks old, Kyudo, Fukuoka, Japan) were anesthetized with an intraperitoneal injection of ketamine hydrochloride at a dose of 75 mg/kg body weight. One eye from each animal (total of n=6 per dose group) was vitrectomized using 0.05 ml of pure SF6 gas as described previously. Following the gas injection, 0.05 ml of BBG solution was injected into the vitreous cavity of each vitrectomized eye using a microscope for enhanced magnification during surgery. […] Twenty-four sham-operated eyes (injected with SF6 followed by 0.05 ml of intraocular irrigating solution) were used as controls.
The eyes were enucleated on day 14 and at 2 months post-operation and fixed in 1% glutaraldehyde and 1% paraformaldehyde in PBS. The specimens were postfixed in veronal acetate buffer osmium tetroxide (2%), dehydrated in ethanol and water, and embedded in Epon. Ultrathin sections were cut from blocks and mounted on copper grids.

[7] = Osmolarity and pH of the BBG solution; type: physicochemical
ILM [8] = system: ILM; remark: listed apart in the source
Method: Since ILM peeling is impossible in rat eyes, the inventors examined the ability of BBG to stain the ILM in primate eyes. Two eyes from two cynomolgus monkeys at 3 years of age were used in this study. The animals were restrained in a squeeze cage and injected intramuscularly in the thigh with 20 mg/kg of ketamine hydrochloride (Sankyo Yell Pharmaceutical Products Co. Ltd., Japan) for general anesthesia. The monkeys were subsequently transported to an operating room. Surgery consisted of a standard three port pars plana vitrectomy with induction of a posterior vitreous detachment by suction with a vitrectomy cutter using triamcinolone acetonide injection for vitreous visualization.
Ten milligrams of BBG were dissolved in 20 ml of intraocular irrigating solution and sterilized with a syringe filter. The final concentration of BBG was 0.5 mg/ml. The prepared BBG solution (0.5 ml) was then injected gently into the vitreous cavity and washed out immediately with balanced salt solution (BSS Plus (Registered trademark), Santen, Osaka, Japan). Removal of the ILM was performed using ILM forceps.

retina [9] = settings: rat, in vivo; remark: listed apart in the source
ILM [10] = test: BBG in ILM staining, effects and safety in human eyes (first attempt, 16 eyes); type: in vivo
Method: Sixteen eyes of 16 patients with a macular hole (MH) and epiretinal membranes (ERMS) were recruited from the outpatient unit of Kyushu University Hospital (Fukuoka, Japan) between August and September 2004. Patients with ocular diseases such as glaucoma, uveitis, and corneal disorder were excluded. This study was carried out with the approval from the appropriate institutional Ethics Committee and was performed in accordance with the ethical standards laid down in the 1989 Declaration of Helsinki. The possible advantages and risks of the present treatment were explained to the patients before surgery and informed consent was obtained from all patients. […] The final concentration of BBG was 0.25 mg/ml. […] Removal of the ILM was performed using ILM forceps (D.O.R.C.; Dutch Ophthalmic Research Center International b.v., Netherlands).
Postoperative examinations included slitlamp microscopy, opthalmoscopy, best corrected visual acuity (BCVA) and intraocular pressure. The visual field was evaluated with Humphrey Field Analyzer II (Humphrey Systems, Dublin, Calif., USA) after 2 months.

corneal cells = test: Anterior chamber injection of dyes in rats: transmission electron microscopy; settings: single anterior chamber injection; BBG 10 mg/ml, ICG 5 mg/ml, TB 1 mg/ml
Method: Brown Norway rats (Kyudo, Fukuoka, Japan), postnatal 8 weeks, were studied as follows. The rats were anesthetized with an intraperitoneal injection of pentobarbital and their pupils were dilated with topical 1% tropicamide and 2.5% phenylephrine hydrochloride. The anterior chamber was entered through the clear cornea with a 30-gauge needle mounted on a syringe. Then a single anterior chamber injection was performed with each dye, BBG (10, 1, 0.5, 0.25, 0.1 and 0.01 mg/ml), ICG (5 mg/ml), trypan blue (1 mg/ml), and the control OPEGUARD. solution (n=6 for each dye, total 54 eyes).
The dye remained in the anterior chamber and was followed by biomicroscopic examination for 2 months. The eyes were enucleated at 2 weeks and 2 months after operation. The eyes were analyzed by light microscopy, transmission and scanning electron microscopy.
The eyes were enucleated and the anterior segments were fixed in 1% glutaraldehyde and 1% paraformaldehyde in PBS. The specimens were postfixed in veronal acetate buffer osmium tetroxide (2%), dehydrated in ethanol and water, and embedded in Epon. Ultrathin sections were cut from blocks and mounted on copper grids.

cornea = test: Anterior chamber injection of dyes in rats: light microscopy (HE); type: in vivo, Brown Norway rats; settings: single anterior chamber injection; BBG 0.01-10 mg/ml, ICG 5 mg/ml, TB 1 mg/ml; 2 weeks and 2 months
Description: The eyes were fixed in 4% paraformaldehyde and cut in half, embedded in paraffin, deparaffinized in xylene, rehydrated in ethanol, and washed in phosphate-buffered saline (PBS). The 4 μm thick sections were stained by hematoxylin and eosin, and observed by light microscope.

[11] = 0.25 mg/ml, 0.5 ml intravitreal, washed out immediately
[12] = BBG 10 mg/ml in intraocular irrigating solution (OPEGUARD-MA)
[13] = individual patient case, BBG 0.25 mg/ml

## Cc1cc(-c2ccc(/N=N/c3c(S(=O)(=O)O)cc4cc(S(=O)(=O)O)cc(N)c4c3O)c(C)c2)ccc1/N=N/c1c(S(=O)(=O)O)cc2cc(S(=O)(=O)O)cc(N)c2c1O [TB, Trypan Blue]
Anterior capsule [1]
  concentration required for staining of the anterior capsule (comparison dyes): 1 mg/mL
Corneal endothelium; TB 1 mg/ml
  apoptotic cell death of corneal endothelium, share of the total endothelial cells: 2%

## CCOc1ccc(Nc2ccc(/C(=C3C=C/C(=[N+](/CC)Cc4cccc(S(=O)(=O)[O-])c4)C=C/3C)c3ccc(N(CC)Cc4cccc(S(=O)(=O)[O-])c4)cc3C)cc2)cc1.[Na+] [BBG, Brilliant Blue G]
ILM [2]; 0.25 mg/ml
  staining of the ERM in ERM cases: could not be confirmed
ILM [2]; [11]
  ILM staining in MH cases: stained a bright blue color instantly
ILM [2]; 0.25 mg/ml, second injection after ERM peeling
  staining of the ILM of the area where the ERM had been removed: well stained
ILM [2]; 20 eyes
  removal of the ILM including the ERM during surgery: removed from all 20 eyes successfully
ILM [2]; ERM cases, eight of 10 patients
  patients with improvement of 2 or more lines on the Snellen chart: 80%
ILM [2]; ERM cases, preoperative 454.7±141.3 μm
  mean foveal thickness of retina measured with OCT, postoperative: 249.4±71.3 μm
ILM [2]; ERM cases, preoperative median 20/50
  postoperative median BCVA: 20/32
ILM [2]; MH cases, 9 of 10 eyes
  eyes with visual acuity improved by 2 or more Snellen lines: 90%
ILM [2]; MH cases, preoperative median 20/100
  postoperative median BCVA: 20/32
ILM [2]; all 10 MH cases
  closure of MH (ophthalmoscopy and OCT): completely closed anatomically
ILM [2]; in vivo
  complication: protraction of vitreous hemorrhage: one case
  complications: iatrogenic peripheral retinal breaks: two cases
  elevation of IOP: 26 mmHg
  other adverse effects such as retinal pigment epithelium (RPE) atrophy: No other adverse effects
ILM [2]; individual MH case
  Postop. Retinal status: MH closed
Anterior capsule [3]
  concentration providing satisfactory staining of the anterior capsule: 0.25 mg/mL
Anterior capsule [3]; 0.1 mg/ml and 0.01 mg/ml
  capsular staining: obscure
Anterior capsule [3]; 0.25 mg/ml to 1 mg/ml, staining deepened with concentration
  staining of the anterior capsule: stained the anterior capsule homogenously
Anterior capsule [3]; pig eye anterior capsule
  minimal concentration needed to produce high quality staining with clear visualization: 0.25 mg/mL
Anterior capsule [4]; 0.25 mg/ml into anterior chamber, immediately irrigated, white mature cataract
  visibility of the anterior capsule during CCC: clearly visible
Anterior capsule [4]; after 2 months
  corneal endothelial cell loss: 0.8%
Anterior capsule [4]; improved from light perception (LP)
  visual acuity after surgery: 20/20
Anterior capsule [4]; the following day
  acute toxicity (corneal edema, severe inflammation or elevated intraocular pressure): no acute toxicity
Retina [5]; all BBG dose groups, after 2 months
  apoptotic cell death of retinal cells: had not undergone apoptotic cell death
Retina [5]; intravitreal 10 mg/ml, day 14
  apoptotic cell death in retina (TUNEL): one case of apoptotic cell death was observed from among ten sections
  apoptotic cell ratio compared with control sections: not significantly different
Retina [5]; intravitreal lower doses, day 14
  TUNEL staining in the retina: no TUNEL staining was observed
Retina [6]
  changes in inner nuclear, outer nuclear and retinal pigment epithelial cell layers (TEM): no remarkable changes were observed
Corneal endothelium
  apoptotic cell death (TUNEL) in corneal stromal cells, endothelium, ciliary body and lens cells: no TUNEL staining was observed
[7]; BBG 0.01 mg/ml in OPEGUARD-MA
  Osmolarity: 298 mOsm/KgH20
  pH: 7.41
[7]; BBG 0.1 mg/ml in OPEGUARD-MA
  Osmolarity: 298 mOsm/KgH20
  pH: 7.41
[7]; BBG 0.25 mg/ml in OPEGUARD-MA
  osmolarity of prepared BBG solution: 289 mOsm
  pH of prepared BBG solution: 7.44
[7]; BBG 1.0 mg/ml in OPEGUARD-MA
  Osmolarity: 300 mOsm/KgH20
  pH: 7.42
[7]; [12]
  Osmolarity: 310 mOsm/KgH20
  pH: 7.41
ILM [8]; 0.5 mg/ml, 0.5 ml into vitreous cavity, washed out immediately
  ILM staining: stained a light blue color
ILM [8]; ratio to ICG concentration
  concentration of BBG required to stain the ILM of primates in comparison with ICG: about 1/10
Retina [9]
  infiltration of inflammatory cells (light microscopy): no infiltration of inflammatory cells was observed
  toxic effects such as corneal edema, severe retinal edema, or endophthalmitis (surgical microscopy): no toxic effects
ILM [10]; 0.25 mg/ml
  staining of the ERMS: could not be confirmed
ILM [10]; [11]
  ILM staining: stained a light blue color
ILM [10]; 16 eyes, BBG 0.25 mg/ml
  elevation of intraocular pressure: None of the patients had an elevation of intraocular pressure
ILM [10]; 16 eyes, MH and ERM, BBG 0.25 mg/ml assisted peeling
  visual acuity: recovered in all cases
ILM [10]; [13]
  Postop. Retinal status: MH closed; also recorded: Fold (−); also recorded: Macular
  complications: Peripheral (2×) and none (13×) and Vitreous
ILM [10]; individual patient case, BBG 0.25 mg/ml, follow up 2-4 months
  Postop. BCVA: 20/50 (2×) and 20/63 (2×) and 20/25 (2×) and 20/32 (4×) and 20/40 (3×) and 20/16 and 20/20
ILM [10]; within the observation period
  other adverse effects due to BBG: No other adverse effects

## CC1(C)C(/C=C/C=C/C=C/C=C2\N(CCCCS(=O)(=O)O)c3ccc4ccccc4c3C2(C)C)=[N+](CCCCS(=O)(=O)[O-])c2ccc3ccccc3c21 [ICG, Indocyanine green]
Anterior capsule [1]
  concentration required for staining of the anterior capsule (comparison dyes): 5 mg/mL
Corneal cells
  ultrastructure of corneal cells and endothelium (TEM): some endothelial cells demonstrated signs of mitochondrial swelling
cornea
  changes in hematoxilin and eosin stained sections of the cornea: no remarkable changes
Corneal endothelium
  apoptotic cell death (TUNEL) in corneal stromal cells, endothelium, ciliary body and lens cells: no apparent apoptotic cell death was detected
